Experimental data published in patent US10624836B2, “Essential oil of achillea as anti-ageing agent” (L'OREAL, priority 2013, dated 2020).

What was measured:
[1] = system: epidermis of a Realskin™ reconstructed skin; assay: Intra-tissue glutathione (GSH) level in reconstructed skin, LC/MS of GS-NEM; format: cell-based; settings: lipoic acid 250 μmol·l^−1; 16 h at 37° C.; positive control
Description: For this, the GSH level was measured in the epidermis of a Realskin™ reconstructed skin which was: • nontreated (control), • treated with essential oil of Achillea at 0.01% by volume, or • treated with lipoic acid at 250 μmol·l^−1 (positive control).
The reconstructed tissue model kits are conditioned for transport on agar medium. Upon arrival, the tissues were reconditioned in a maintenance medium for a minimum of 16 h at 37° C. in a moisture-saturated atmosphere enriched with 5% CO2. The same medium was used for the incubations in the presence of the substrate.
The various solutions (2 ml) (of essential oil of Achillea at 0.01% by volume and of lipoic acid at […]) were deposited in the wells underneath the skins in order to diffuse through said skins more easily by capillary action. The tissues were then incubated in an incubator at 37° C. for 16 h.
The tissues were ground by means of a Potter grinder in […] of a solution of N-ethylmaleimide (NEM) at 2.5 mmol·l^−1 (excess of NEM). The Potter grinder was then washed with […] of ultrapure water, and 500 μl of 2% formic acid were added. The samples were then centrifuged for 15 minutes at 6000 rpm and at 4° C.
In order to assay the glutathione coupled to the NEM (GS-NEM), […] of the supernatant is diluted in 975 μl of 1% formic acid (1/40) in a 1 ml vial. […]

[2] = system: primary normal human keratinocytes; assay: Collagen IV production by keratinocytes, in situ immunolabelling and image analysis; format: cell-based; settings: TGF-β tested at 10 ng/ml; 72 hours at 37° C.; positive control
Description: The keratinocytes were seeded into and cultured in culture medium for 24 hours.
The culture medium (2.5 ml) was then replaced: • either with test medium containing TGF-β (Transforming Growth Factor β) at 10 ng/ml (positive control), • or with test medium containing the essential oil of Example 1 at 0.003% by volume, • or with the same culture medium (control).
The cells were then incubated for 72 hours at 37° C.
The culture medium was removed and the cells were rinsed, fixed and permeabilized. They were then labelled with an Anti-Collagen IV primary antibody sold by Abcam (reference: Ab6586) directed against the protein of interest (collagen IV). This antibody was visualized with an Alexa Fluor® 488 Goat Anti-Rabbit IgG (H+L) secondary antibody sold by Invitrogen (reference: A11008) coupled to a fluorochrome (GAR-Alexa 488). In parallel, the nuclei of the cells were stained with Hoechst 33258 (bisbenzimide).
The image acquisition was carried out with an INCellAnalyzer™1000 (GE Healthcare) high-resolution imaging system. For each well, 5 digitized images were acquired.
The labellings were quantified by measuring the fluorescence intensity of the proteins relative to the number of nuclei identified by the Hoechst product (integration of the digital data using the Developer Toolbox 1.5 software, GE Healthcare).

Compound | increase in the GSH level relative to the nontreated tissues [1] | collagen IV production by the keratinocytes, relative to the control [2]
O=C(O)CCCC[C@@H]1CCSS1 (racemic) [lipoic acid] | 52.0+/−12.7% | –
TGF-β | – | 594%
